Measurements reported in patent US20230000835A1, “LYSINE-SPECIFIC HISTONE DEMETHYLASE INHIBITORS FOR THE TREATMENT OF MYELOPROLIFERATIVE NEOPLASMS” (Imago Biosciences, Inc., priority 2019, published 2023).
Counter-ions that a name gives are not always drawn.

Tests used:
[1] = tested on: patients with high-risk MF; assay: Phase 1/2a clinical study in myelofibrosis: MPN-SAF / MPN-10 symptom score; format: in vivo, human
Excerpt: In certain embodiments, said patient-reported survey is the Myeloproliferative Neoplasm Symptom Assessment Form (MPN-SAF). The MPN-SAF is a validated clinical assessment form for the most common symptoms of myeloproliferative neoplasms, in which patients self-reports their score, on a scale of 1-10, of various common symptoms, where 1 is the most favorable or the symptom is absent, and 10 is the least favorable or the symptom is the worst imaginable. See, e.g., Scherber R et al., The Myeloproliferative Neoplasm Symptom Assessment Form (MPN-SAF): International Prospective Validation and Reliability Trial in 402 patients,” Blood 118(2):401-08 (2014). Either the full or abbreviated forms may be administered to the patient. In the abbreviated version, a “total symptom score” (TSS) may be calculated from the ten most clinically relevant symptoms from the 17-item MPN-SAF: worst fatigue, concentration, early satiety, inactivity, night sweats, itching, bone pain, abdominal discomfort, weight loss, and fever. The MPN-SAF TSS thus has a possible range of 0 to 100. Quality of life scores are defined as “clinically deficient” when they rate as at least 4 of 10; “moderate” if symptoms are rated as ≥4 of 10 or ≤6 of 10; and “severe” if symptoms are rated as ≥7 of 10. For patients who complete at least six of these 10 items on the BFI and MPN-SAF, the MPN TSS is computed as the average of the observed items multiplied by 10 to achieve a 0-to-100 scale. See, e.g., Emanuel R M et al., “Myeloproliferative neoplasm (MPN) symptom assessment form total symptom score: prospective international assessment of an abbreviated symptom burden scoring system among patients with MPNs,” J Clin Oncol 30(33):4098-103 (2012). […]
The Phase 1/2A portion of the study assessed: the safety of the original starting dose, 0.25 mg/kg/d; an 85-day duration of treatment with a subsequent washout period of up to 28 days; and, pharmacokinetic and drug concentration measurements. […]

[2] = tested on: patients with high-risk MF; assay: Clinical studies in myelofibrosis: safety and tolerability (adverse events); format: in vivo
Method: A multi-center, open-label study evaluating the safety, tolerability, steady-state pharmacokinetics and pharmacodynamics of Compound 1 administered orally once daily in patients with high-risk MF, including primary myelofibrosis (PMF), post-polycythemia vera myelofibrosis (PPV-MF), and post-essential thrombocythemia myelofibrosis (PET-MF) (collectively referred to as ‘MF’) was initiated as a Phase 1/2A study, and was expanded to a Phase 2b study.
This study was conducted at multiple sites. Up to 50 patients, eighteen years of age or older, with high-risk myelofibrosis were treated. The primary objectives included safety and tolerability, pharmacokinetics (PK; Phase 1/2A only) and spleen volume reduction (SVR). […] Key inclusion criteria included: high- or intermediate-2 risk myelofibrosis; per the Investigator's judgment have failed (refractory or resistant to, inadequately controlled by or intolerant of), or are not a candidate for, available approved therapy including ruxolitinib; platelet count ≥100K/μL; and, circulating blasts ≤10%.
Safety. […] Four SAEs attributed to Compound 1 (all Grade 3), including painful splenomegaly, headache, nausea and vomiting, and heart failure. There were 139 AEs of all grades attributed to Compound 1. The most common AEs across the 31 subjects from both of the above studies were thrombocytopenia (11 subjects, 35%), anemia (3 subjects, 10%) and nausea (1, 3%). The most common grade 3/4 AEs attributed to Compound 1 were Anemia (6 subjects, 19%) and neutropenia (3 subjects, 10%).

## CN1CCN(C(=O)[C@H](CCCN[C@@H]2C[C@H]2c2ccc(F)cc2)NC(=O)c2ccc(-n3ccnn3)cc2)CC1 [Compound 1, N-[(2S)-5-{[(1R, 2S)-2-(4-fluorophenyl)cyclopropyl]amino}-1-(4-methylpiperazin-1-yl)-1-oxopentan-2-yl]-4-(1H-1,2,3-triazol-1-yl)benzamide, bis-tosylate salt]
[1]; evaluable patients N=14, 85-day cycle
  effect on myelofibrosis symptoms: profound effect on myelofibrosis symptoms
[1]; of the first 16 patients, within 14 days
  number of patients with improved scores of fatigue: 8
[1]; week 24, Phase 1/2a
  patients with a decrease in symptom score (MPN-10): 89%
[2]; 31 subjects
  subjects with anemia (most common AEs): 10%
  subjects with grade 3/4 Anemia attributed to the drug: 19%
  subjects with grade 3/4 neutropenia attributed to the drug: 10%
  subjects with nausea (most common AEs): 3%
  subjects with thrombocytopenia (most common AEs): 35%
[2]; heterogeneous population of patients with MF
  tolerability: well tolerated
[2]; human, in vivo
  number of AEs of all grades attributed to the drug: 139
[2]; painful splenomegaly, headache, nausea and vomiting, heart failure
  number of SAEs attributed to the drug (all Grade 3): Four
